Assay results published in US9463198B2, “Compositions and methods for reducing or preventing metastasis” (Infectious Disease Research Institute, priority 2013, dated 2016).

Tests used:
MADB 106 tumor cells [1] = assay: MADB 106 lung tumor retention (LTR) in F344 rats; format: in vivo, F344 rat; conditions: for MADB 106 LTR, GLA vs PBS (time course): with epinephrine
Protocol: GLA (IDRI, Seattle, Wash.), dissolved in stable emulsion (SE) (2000 μg/ml) was diluted in PBS for a final concentration of 3 μg/ml-200 μg/ml (depending on the relevant experiment). One-hundred μl from the chosen concentration were injected subcutaneously (s.c.) to each animal (0.3 μg-20 μg/animal), immediately, 4 h, 12 h, 24 h, 48 h, or 96 h prior to MADB106 tumor cell inoculation (depending on the relevant experiment).
MADB 106 tumor cells metastasize only to the lungs, and lung tumor retention (LTR), which is highly indicative of the number of metastases that would have developed weeks later, is dependent upon NK cells in this model. Additionally, because the metastatic process of MADB106 is sensitive to NK activity predominantly during the first 24 h following inoculation, LTR is more reflective of in vivo NK activity levels than the number of actual metastases. The MADB 106 cell line was maintained in monolayer cultures in complete media (RPMI-1640 media supplemented with 10% heat-inactivated fetal calf serum (FCS), 50 μg/mL of gentamicin, 2 mM of 1-glutamine, 0.1 mM of non-essential amino-acids, and 1 mM of sodium pyruvate, (Biological Industries, Kibbutz Biet Haemek, Israel) in 100% humidity, 5% CO2 at 37° C. Cells were removed from the culture flask with trypsin solution (0.25% in PBS), and were washed with complete media. This cell line was used for both in vivo assessment of lung tumor retention and in vitro examination of NK cytotoxicity.
Tumor cell DNA radiolabeling for assessment of LTR was accomplished by adding 0.5 μCi/ml of ^125Iododeoxyuridine (^125IDUR, Danyel Biotech, Rehovot, Israel) to the cell culture for 24 h. For tumor cell injection, rats were lightly anesthetized with isoflurane, and 4×10^5/kg MADB106 tumor cells in 2 ml/kg PBS containing 0.1% bovine serum albumin (BSA) were injected into their tail vein. Some of the experiments also employed an additional 0.5 ml s.c. injection of epinephrine (1.8 mg/kg in females and 0.6 mg/kg in males) dissolved in a slow-release emulsion (4 parts PBS, 3 parts mineral oil (Sigma, Rehovot, Israel), and 1 part mannide-monooleate (a non-specific surface active emulsifier, Sigma, Rehovot, Israel)), for the amplification of MADB 106 retention in the lungs, allowing better group distinction. For assessment of LTR, animals were sacrificed with CO2, their lungs were removed 24 h after inoculation with ^125IDUR-labeled tumor cells, and placed in a γ-counter to assess percent radioactivity retained in this organ. LTR was calculated using the following formula: (radioactivity count of lung−background radioactivity)×100/(radioactivity count of the total injected cell suspension−background radioactivity).
Seventy-five three months old F344 male rats were randomly divided into one of 7 experimental groups administered with PBS, SE, or GLA in a dose/animal of 0.3 μg, 0.7 μg, 2.5 μg, 10 μg, and 20 μg. Each animal was injected s.c. with 100 μl of drug according to its group assignment, and, 24 h later, MADB 106 cells were inoculated (as detailed in section 4 above). Each of these 7 groups was further sub-divided into two separate groups—one that was injected with epinephrine during tumor inoculation, and the second that was injected with vehicle. Twenty-four hours later, animals were sacrificed and lungs were extracted for LTR assessment (as detailed in section 4).
In the first experiment, 75 six-month old F344 male rats were randomly divided into one of 5 injection time points preceding tumor inoculation—0 h, 4 h, 12 h, 24 h, and 48 h. Each group was further sub-divided into one of three experimental drug groups—PBS, SE, and 2 μg GLA. Each animal was injected s.c. with 100 μl according to its relevant drug group, in its designated time point. At time 0 h, MADB106 cells were injected (as detailed in section 4), along with epinephrine. […]

MADB 106 tumor cells [2] = assay: Three week study of MADB106 metastases development in the lungs; format: in vivo, F344 rat; conditions: male and female rats, 2 μg GLA s.c. 24 h before inoculation, counted three weeks later, GLA reducing the number
Protocol: Eighty-six six-month old F344 rats (44 females) were divided into three experimental groups (2 μg GLA, SE, and PBS). Each animal was injected s.c. with 100 μl according to its group assignment. Twenty-four hrs later, animals were lightly anesthetized with isoflurane and 10^5 MADB 106 tumor cells (approximately 4×10^5/kg) were injected into their tail vein in 0.5 ml of PBS (supplemented with 0.1% BSA). Three weeks later, rats were killed, and their lungs removed and placed for 24 h in Bouin's solution (72% saturated picric acid solution, 23% formaldehyde (37% solution) and 5% glacial acetic acid). After being washed in ethanol, visible surface metastases were counted by a researcher uninformed of the origin of each lung.

In the case of `CNC[C@H](O)c1ccc(O)c(O)c1` [epinephrine, reference compound], the “effect of epinephrine on LTR” value (MADB 106 tumor cells [1]; s.c. slow-release emulsion given along with MADB 106 cell inoculation) is reported as “increasing LTR levels”.
With glucopyranosyl lipid adjuvant [GLA] the “MADB 106 LTR, GLA vs PBS (time course)” value (MADB 106 tumor cells [1]; female rats, 2 μg GLA s.c. 24 h before inoculation, p<0.05) was “significant difference”, the “MADB 106 LTR, GLA vs PBS (time course)” value (MADB 106 tumor cells [1]; female rats, 2 μg GLA s.c. 48 h before inoculation, p<0.05) was “significant difference” and the “MADB 106 LTR, GLA vs PBS (time course)” value (MADB 106 tumor cells [1]; male rats, 2 μg GLA s.c. 4 h before inoculation, p<0.05) was “significant difference”. For the same compound, the “MADB 106 LTR, GLA vs PBS (time course)” value (MADB 106 tumor cells [1]; male rats, 2 μg GLA s.c. 12 h before inoculation, p<0.0001) was “significant difference”, the “MADB 106 LTR, GLA vs PBS (time course)” value (MADB 106 tumor cells [1]; male rats, 2 μg GLA s.c. 24 h before inoculation, p<0.0001) was “significant difference” and the “MADB 106 LTR, GLA vs PBS (time course)” value (MADB 106 tumor cells [1]; male rats, 2 μg GLA s.c. 48 h before inoculation, p<0.0001) was “significant difference”. For the same compound, the “MADB 106 LTR in NK-depleted animals” value (MADB 106 tumor cells [1]; male rats, NK depletion by anti-NKR-P1 mAb, 2 μg GLA or SE s.c. 24 h before inoculation) was “no effect”, the “MADB 106 LTR, additive effect of GLA over SE” value (“MADB 106 LTR … over SE” below) (MADB 106 tumor cells [1]; male rats, epinephrine groups, 0.7 μg/animal s.c. 24 h before inoculation, p<0.05) was “significant improvements” and the “MADB 106 LTR … over SE” value (MADB 106 tumor cells [1]; male rats, epinephrine groups, 2.5 μg/animal s.c. 24 h before inoculation, p<0.01) was “significant improvements”. The “MADB 106 LTR … over SE” value (MADB 106 tumor cells [1]; male rats, epinephrine groups, 10 μg/animal s.c. 24 h before inoculation, p<0.01) was “significant improvements”, the “MADB 106 LTR … over SE” value (MADB 106 tumor cells [1]; male rats, epinephrine groups, 20 μg/animal s.c. 24 h before inoculation, p<0.001) was “significant improvements” and the “reduction of the epinephrine effect on LTR, relation to dosage” value (MADB 106 tumor cells [1]; male rats, epinephrine groups, 0.3-20 μg/animal) was “positively correlated with its dosage”. The “MADB 106 LTR, GLA over PBS” value (MADB 106 tumor cells [1]; male rats, epinephrine groups, all GLA doses (0.3-20 μg/animal) s.c. 24 h before tumor inoculation, p<0.0001) was “significant improvement”, the “MADB 106 LTR, GLA vs PBS, no-depletion condition” value (MADB 106 tumor cells [1]; male rats, no NK depletion, 2 μg GLA s.c. 24 h before inoculation, p<0.01) was “significant difference” and the “dosage giving an additive effect for GLA over SE effects on LTR” value (MADB 106 tumor cells [1]; male rats, s.c. 24 h before inoculation) was ≥ 0.7 μg per animal. For the same compound, the “MADB 106 LTR, GLA over PBS” value (MADB 106 tumor cells [1]; male rats, vehicle (no epinephrine) groups, 0.7 μg/animal s.c. 24 h before inoculation, p<0.05) was “significant improvement”, the “MADB 106 LTR, GLA over PBS” value (MADB 106 tumor cells [1]; male rats, vehicle (no epinephrine) groups, 2.5 μg/animal s.c. 24 h before inoculation, p<0.01) was “significant improvement” and the “MADB 106 LTR, GLA over PBS” value (MADB 106 tumor cells [1]; male rats, vehicle (no epinephrine) groups, 10 μg/animal s.c. 24 h before inoculation, p<0.05) was “significant improvement”. For the same compound, the “MADB 106 LTR, GLA over PBS” value (MADB 106 tumor cells [1]; male rats, vehicle (no epinephrine) groups, 20 μg/animal s.c. 24 h before inoculation, p<0.01) was “significant improvement”, the “number of lung surface metastases, GLA vs SE” value (MADB 106 tumor cells [2]; p<0.01) was “significant difference” and the “number of lung surface metastases, GLA vs PBS” value (MADB 106 tumor cells [2]; p<0.05) was “significant difference”.
